The text below walks through data of patent publication US20080063670A1, “Nitroimidazole composition and method” (priority 2006, published 2008).

Data set [1] is described as follows: Solubilization of nitroimidazoles in water with and without acids: crystals forced at about 4° C., re-dissolution observed at about 20° C. over about 14 days. The data set is classed as physicochemical. The arrangement: key to crystals present: − means no crystals present; + means crystal are present. Conditions: for crystals present: water, about 20° C., 14 days. The method, then:
Heat was applied, if necessary, to dissolve the nitroimidazole. No organic co-solvents, water-soluble vitamins, or cyclodextrins were present in the solutions. The amount of acid was selected to be about equimolar with the amount of nitroimidazole added. After the nitroimidazole was dissolved, each solution was cooled to about 4° C. to force crystallization of some of the nitroimidazole. If crystals were not observed upon cooling, seed crystals of nitroimidazole were added and the solution were again maintained at about 4° C. […] The absence of crystals after 14 days indicates effective dissolution of the nitroimidazole.

The conditions of data set [2]: in water at neutral pH; cited from earlier work.

On to `Cc1ncc([N+](=O)[O-])n1CCO` [Metronidazole, 1-(2-hydroxyethyl)-2-methyl-5-nitroimidazole], for which the crystals present result in data set [1] (Metronidazole Concentration 0.8%, Acid: Acetic (about equimolar)) is recorded as “−”; in data set [1] (Metronidazole Concentration 0.8%, Acid: Hydrochloric (about equimolar)), “−”; in data set [1] (Metronidazole Concentration 0.8%, Acid: None), “−”; in data set [1] (Metronidazole Concentration 0.8%, Acid: Tartaric (about equimolar)), “−”; in data set [1] (Metronidazole Concentration 1.0%, Acid: Acetic (about equimolar)), “−”; in data set [1] (Metronidazole Concentration 1.0%, Acid: Citric (about equimolar)) it was “−”. Moreover, the crystals present result is reported as “−” in data set [1] (Metronidazole Concentration 1.0%, Acid: Hydrochloric (about equimolar)); “+” in data set [1] (Metronidazole Concentration 1.0%, Acid: None); “−” in data set [1] (Metronidazole Concentration 1.0%, Acid: Tartaric (about equimolar)); “+” in data set [1] (Metronidazole Concentration 1.2%, Acid: Acetic (about equimolar)); “+” in data set [1] (Metronidazole Concentration 1.2%, Acid: Hydrochloric (about equimolar)); “−” in data set [1] (Metronidazole Concentration 1.2%, Acid: Tartaric (about equimolar)). Further, the crystals present result is “−” in data set [1] (Metronidazole Concentration […], Acid: Citric (about equimolar)) and “+” in data set [1] (Metronidazole Concentration […], Acid: None). The “concentration of solutions free from crystals” value in data set [1] (at 20° C., utilizing organic acids (e.g., acetic acid, citric acid, tartaric acid, and malic acid)) is on record as “at least 1 percent by weight”. For the same compound, in data set [2], the solubility in water result is recorded as “less than 1 percent by weight”.
Regarding `CCS(=O)(=O)CCn1c([N+](=O)[O-])cnc1C` [Tinidazole, 1-[2-(ethylsulfonyl)ethyl]-2-methyl-5-nitroimidazole], the crystals present result is “−” in data set [1] (Tinidazole Concentration 0.45%, Acid: Acetic (about equimolar)); “−” in data set [1] (Tinidazole Concentration 0.45%, Acid: Citric (about equimolar)); “−” in data set [1] (Tinidazole Concentration 0.45%, Acid: Hydrochloric (about equimolar)); “−” in data set [1] (Tinidazole Concentration 0.45%, Acid: None); “−” in data set [1] (Tinidazole Concentration 0.45%, Acid: Tartaric (about equimolar)); “−” in data set [1] (Tinidazole Concentration 0.50%, Acid: Acetic (about equimolar)). Moreover, the crystals present entry was “−” in data set [1] (Tinidazole Concentration 0.50%, Acid: Citric (about equimolar)); “−” in data set [1] (Tinidazole Concentration 0.50%, Acid: Hydrochloric (about equimolar)); “+” in data set [1] (Tinidazole Concentration 0.50%, Acid: None); “−” in data set [1] (Tinidazole Concentration 0.50%, Acid: Tartaric (about equimolar)); “+” in data set [1] (Tinidazole Concentration 0.55%, Acid: Acetic (about equimolar)); “−” in data set [1] (Tinidazole Concentration 0.55%, Acid: Citric (about equimolar)). In addition, the crystals present result is “−” in data set [1] (Tinidazole Concentration 0.55%, Acid: Hydrochloric (about equimolar)); “+” in data set [1] (Tinidazole Concentration 0.55%, Acid: None); “−” in data set [1] (Tinidazole Concentration 0.55%, Acid: Tartaric (about equimolar)); “+” in data set [1] (Tinidazole Concentration 0.60%, Acid: Acetic (about equimolar)); “+” in data set [1] (Tinidazole Concentration 0.60%, Acid: Citric (about equimolar)); “+” in data set [1] (Tinidazole Concentration 0.60%, Acid: Hydrochloric (about equimolar)). Also, the crystals present entry in data set [1] (Tinidazole Concentration 0.60%, Acid: None) was “+”; in data set [1] (Tinidazole Concentration 0.60%, Acid: Tartaric (about equimolar)), “+”. For the same compound, the “concentration obtained (as high as), free from crystals” value in data set [1] (at 20° C., utilizing citric acid and using tartaric acid) is “about 0.55 percent by weight”. Also, in data set [2], the solubility in water entry is “about 0.45 percent by weight”.
